# Peptide text beside a SMILES is read from it.
# Key:
# [1] = system: human leukemia K562 cells; test: Proliferation of cultured human leukemia K562 cells in vitro (MTT); type: cell-based; settings: for % inhibition / OD value: 48 hours; for OD value: MTT OD570 nm, negative control 0.43 ± 0.01
# Description: A human leukemia K562 cell at logarithmic growth phase was adjusted to density of 5×10^4/ml with RPMI-1640 culture medium containing 10% FBS. 100 μl/well of the cell were placed onto a 96 wells cell culture plate. The cells were incubated for 24 hours at 37° C., 5% CO2. The experiment included […] with different concentrations of YSV in culture medium and a negative control group with culture medium only. The final concentrations of YSV were 40 μg/ml, 20 μg/ml, 10 μg/ml, and 5 μg/ml. Each group contained five parallel wells. 100 μl/well testing solution was added to the treated cells. The cells were incubated for 48 hours at 37° C., 5% CO2.
# (§1) The cells were then pelleted by centrifugation at 150 g for 10 minutes. The supernatant was removed and 100 μl/well MTT solution of 0.5 mg/ml in RPMI-1640 was added to the cell pellets and the cells were re-suspended by shaking for 2 minutes. Incubation was continued for 4 hours. The supernatant was removed after a centrifugation at 150 g for 10 minutes. After blotted dry by filter paper, 100 μl/well 40 mM HCl-2-propanol was added to the cell pellets and shaken for 3 minutes. OD570 nm of each well referenced at 630 nm was obtained by using ELISA reader.
# [2] = system: T lymphocytes (spleen lymphocyte suspension); test: Effect of YSV on T lymphocyte transformation in vitro (ConA, MTT); type: cell-based, BALB/c Mice; settings: for X ± SD (OD), T lymphocytes transformation: 68 hrs, MTT OD570 nm, positive control 0.14 ± 0.00
# Description: Healthy mice were sacrificed by cervical dislocation. The spleens were isolated and dispersed aseptically. The spleen lymphocyte suspension washed and adjusted to a cell density of 5×10^6/ml with RPMI-1640 culture medium containing 10% fetal bovine serum. YSV was diluted with RPMI-1640 culture medium into various concentrations: 2 μg/ml, 0.4 μg/ml, 0.08 μg/ml, 0.016 μg/ml. Con A working solution was adjusted to 1 mg/ml with RPMI-1640 culture medium.
# The reagents were placed onto a 96 wells cell culture plate according to the following: 100 μl/well lymphocyte suspension, 20 μl/well ConA, and 100 μl/well YSV solution of various concentrations, 6 parallel wells for each concentration; 100 μl/well lymphocyte suspension and 120 μl/well RPMI-1640 culture medium (containing 10% FBS) were added to 12 parallel wells as negative control; 100 μl/well lymphocyte suspension, 100 μl/well RPMI-1640 culture medium (10% FBS) and 20 μl/well ConA were added to 12 parallel wells as positive control.
# The cells were incubated for 68 hrs at 37° C., 5% CO2, and then pelleted by centrifugation at 150 g for 10 minutes. After the supernatant was removed, 50 μl/well MTT of 1 mg/ml in RPMI-1640 was added to the cell pellet and the cells were re-suspended by shaking for 2 minutes. The incubation was continued for 4 hours. The supernatant was removed after centrifugation at 150 g for 10 minutes. After blotted dry with filter paper, the cells were mixed with 120 μl 40 mM HCl-2-propanol and shaken for 3 minutes. OD570 nm of each well referenced at 630 nm was obtained with an ELISA reader.
# [3] = system: Human liver cancer BEL7402 cells; test: Proliferation of cultured human liver cancer BEL7402 cells in vitro (MTT); type: cell-based; settings: for % inhibition / OD value: 48 hours; for OD value: MTT OD570nm, negative control 0.36 ± 0.01
# Description: Human liver cancer BEL7402 cells at logarithmic growth phase were detached by incubating for 2 to 3 minutes with phosphate buffer saline pH7.4 (PBS) containing 0.05% trypsin and 0.02% EDTA. The cells were examined by inverted phase contrast microscopy. The supernatant was removed after cytoplasm pyknosis and dilatation of cell compartment were observed. A few milliliters of RPMI-1640 culture medium with 10% FBS was added to terminate the digestion. The cells were harvested by gently blowing with a pipette. The suspended cells were collected by centrifugation at 150 g for 10 minutes, and washed twice by cold D-Hank's solution with re-suspension and centrifugation. The washed cells were re-suspended in RPMI-1640 medium with 10% FBS and adjusted to density of 5×10^4/ml. The treated BEL7402 cells were placed onto a 96 wells cell culture plate, 100 μl/well. The cells were incubated for 24 hours at 37° C., 5% CO2 for re-activation and attachment.
# The experiment included three testing groups with different concentrations of YSV and a negative control. The final concentrations of YSV in culture medium were 20 μg/ml, 10 μg/ml, and 5 μg/ml. The YSV solution was replaced by RPMI-1640 culture medium with 10% FBS in the negative control group. Each group contained five parallel wells. The cells were incubated for 48 hours at 37° C., 5% CO2.
# as §1, with “minutes. After the” for “minutes. The”, “was removed,” for “was removed and”, “MTT” for “MTT solution”, “after” for “after a”, “minutes. OD570nm” for “minutes. OD570 nm”
# melanoma B16 = test: Growth of C57BL/6 mice-transplanted melanoma B16; type: in vivo; settings: for The Inhibition rate (%) / Tumor weight: 20 consecutive days; for Tumor weight: saline 2.64 ± 0.68
# Description: B16 cells were maintained in RPMI-1640 medium with 10% FBS at 37° C., 5% CO2. Mouse B16 melanoma culture at log phase was adjusted to 2.5×10^6/ml with Hank's solution. 0.2 ml of this was subcutaneously injected to the right axilla of healthy C57 BL/6 mice to form the melanoma mice model. […] From the next day after the tumor implantation, the general conditions of the mice and the growth of the tumor were observed daily. On the next day after the last test substance administration, the tumors were extirpated and the weights of tumor were measured. […] The results were presented as arithmetic mean ±SD. Statistical analysis was performed using the ANOVA test of the SPSS software.
structure (smiles),measurement,setting,value
"CC(C)[C@H](NC(=O)[C@H](CO)NC(=O)[C@@H](N)Cc1ccc(O)cc1)C(=O)O [YSV, L-Tyrosyl-L-seryl-L-valine] (H-Tyr-Ser-Val-OH)",inhibition of growth of K562 cells in vitro (conclusion),"[1]; 5 μg/ml to 40 μg/ml, p<0.05",able to inhibit the growth of human leukemia K562 cells in vitro
same,% inhibition,[1]; 5 μg/ml,9.7%
same,OD value,[1]; 5 μg/ml,0.39 ± 0.01
same,% inhibition,[1]; 10 μg/ml,9.3%
same,OD value,[1]; 10 μg/ml,0.39 ± 0.01
same,% inhibition,[1]; 20 μg/ml,11.3%
same,OD value,[1]; 20 μg/ml,0.38 ± 0.00
same,% inhibition,[1]; 40 μg/ml,10.8%
same,OD value,[1]; 40 μg/ml,0.38 ± 0.00
same,stimulation of T lymphocyte transformation activity in vitro (conclusion),"[2]; 0.016 μg/ml to 2 μg/ml, p<0.001",able to stimulate the T lymphocyte transformation activity in vitro with statistical significance
same,"X ± SD (OD), T lymphocytes transformation",[2]; YSV 0.016 μg/ml with ConA,0.21 ± 0.01 OD
same,"X ± SD (OD), T lymphocytes transformation",[2]; YSV 0.08 μg/ml with ConA,0.23 ± 0.00 OD
same,"X ± SD (OD), T lymphocytes transformation",[2]; YSV 0.4 μg/ml with ConA,0.18 ± 0.01 OD
same,"X ± SD (OD), T lymphocytes transformation",[2]; YSV 2 μg/ml with ConA,0.18 ± 0.00 OD
same,inhibition of growth of BEL7402 cells in vitro (conclusion),"[3]; 5 μg/ml to 20 μg/ml, p<0.05",able to inhibit the growth of human hepatocellular carcinoma BEL7402 cells in vitro
same,% inhibition,[3]; 5 μg/ml,9.8%
same,OD value,[3]; 5 μg/ml,0.31 ± 0.01
same,% inhibition,[3]; 10 μg/ml,38.0%
same,OD value,[3]; 10 μg/ml,0.22 ± 0.01
same,% inhibition,[3]; 20 μg/ml,23.7%
same,OD value,[3]; 20 μg/ml,0.27 ± 0.01
same,The Inhibition rate (%),melanoma B16; 320 μg/kg/day intraperitoneal,39.6%
same,Tumor weight,melanoma B16; 320 μg/kg/day intraperitoneal,1.60 ± 1.21 g
same,The Inhibition rate (%),melanoma B16; 640 μg/kg/day intraperitoneal,44.6%
same,Tumor weight,melanoma B16; 640 μg/kg/day intraperitoneal,1.47 ± 0.92 g
same,inhibition of growth of B16 melanoma in C57BL/6 mice (conclusion),"melanoma B16; suitable dosage, p<0.05 vs saline",able to inhibit the growth of B16 melanoma in C57BL/6 mice

# From patent US7427599B2, “Biologically active peptide comprising Tyrosyl-seryl-valine(YSV)” (CMS Peptides Patent Holding Company Limited, priority 2003, dated 2008)
